Tested on: COS Cell
Test: COS Cell IC50 (Cell-Based Assay), procedures of WO 95/10516
Description: FPT IC50 (inhibition of farnesyl protein transferase, in vitro enzyme assay) and COS Cell IC50 (Cell-Based Assay) were determined following the assay procedures described in WO 95/10516, published April 20, 1995. GGPT IC50 (inhibition of geranylgeranyl protein transferase, in vitro enzyme assay), Cell Mat Assay, and anti-tumor activity (in vivo anti-tumor studies) could be determined by the assay procedures described in WO 95/ 10516. The disclosure of WO 95/10516 is incorporated herein by reference thereto.

CC1(CC(=O)N2CCC([C@H]3c4ncc(Br)cc4CCc4cc(Cl)cc(Br)c43)CC2)CCN(S(C)(=O)=O)CC1 [Example 1, (+) -4-(3,10-dibromo-8-chloro-6,11-dihydro-5H-benzo[5,6]cyclohepta[1,2-b]pyridin-11(R)-yl)-1-[[4-methyl-1-(methylsulfonyl)-4-pyridinyl]acetyl]piperidine]
IC50: 22 nM

— patent EP0993460B1, “BENZO(5,6)CYCLOHEPTA(1,2B)PYRIDINE DERIVATIVES USEFUL FOR INHIBITION OF FARNESYL PROTEIN TRANSFERASE” (SCHERING CORPORATION, priority 1997, dated 1998)
